Measurements: patent US12414996B2, “Organic anion transporting peptide-based cancer imaging and therapy” (Da Zen Theranostics, Inc., priority 2014, dated 2025)

Assays:
cancer = assay: In vivo cancer targeting of heptamethine cyanine dye derivatives (Nuclear/NIR imaging); details: tumor specific uptake by Nuclear/NIR imaging
Description: The inventor synthesized several heptamethine cyanine dye derivatives (Table 1) and evaluated the tumor specific uptake using Nuclear/NIR imaging.

ACHN = assay: Tumor cell growth inhibition IC50, ACHN; assay type: cell-based; details: Renal Cancer cell line ACHN; read-out: Half maximal inhibitory concentration (IC50) ACHN
Description: (§1) In addition to DZ-1-Gem, some agents of the invention may include other antitumor active moieties, such as cisplatin. For example, the tumor cell growth inhibition activities of DZ-1 linked with cisplatin (“DZ-1-cisplatin”) were compared with those of cisplatin alone in various tumor cells, including prostate, breast, renal, kidney, and lung cancer cell lines.

H358 = assay: Tumor cell growth inhibition IC50, H358; assay type: cell-based; details: Lung Cancer cell line H358; read-out: Half maximal inhibitory concentration (IC50) H358
Description: as §1

Hep G2 = assay: Tumor cell growth inhibition IC50, Hep G2; assay type: cell-based; details: Hepatic Cancer cell line Hep G2; read-out: Half maximal inhibitory concentration (IC50) Hep G2
C4-2B [1] = assay: Tumor cell growth inhibition IC50, C4-2B; assay type: cell-based; details: Prostate Cancer cell line C4-2B; read-out: Half maximal inhibitory concentration (IC50) C4-2B
Description: as §1

PC3 = assay: Tumor cell growth inhibition IC50, PC3; assay type: cell-based; details: Prostate Cancer cell line PC3; read-out: Half maximal inhibitory concentration (IC50) PC3
Description: as §1

LNCaP [2] = assay: Tumor cell growth inhibition IC50, LNCaP; assay type: cell-based; details: Prostate Cancer cell line LNCaP; read-out: Half maximal inhibitory concentration (IC50) LNCaP
Description: as §1

C4-2B [3] = assay: Cytotoxicity (IC50) on cancer cell growth in vitro, C4-2B; assay type: cell-based, human; details: C4-2B prostate cancer cells in culture
LNCaP [4] = assay: Cytotoxicity (IC50) on cancer cell growth in vitro, LNCaP; assay type: cell-based, human; details: LNCaP prostate cancer cells in culture
PC-3 = assay: Cytotoxicity (IC50) on cancer cell growth in vitro, PC-3; assay type: cell-based, human; details: PC-3 prostate cancer cells in culture
C4-2 = assay: Cytotoxicity (IC50) on cancer cell growth in vitro, C4-2; assay type: cell-based, human; details: C4-2 prostate cancer cells in culture
BX-PC3 = assay: Cytotoxicity (IC50) on cancer cell growth in vitro, BX-PC3; assay type: cell-based, human; details: BX-PC3 pancreatic cancer cells in culture
MiaPaCa II = assay: Cytotoxicity (IC50) on cancer cell growth in vitro, MiaPaCa II; assay type: cell-based, human; details: MiaPaCa II pancreatic cancer cells in culture
prostate PDX tumors = assay: Uptake of NIR dye by prostate PDX tumors implanted in mouse subrenal capsules; assay type: in vivo; details: i.p., imaging after 48 hours, excitation 783 nm, emission 840 nm
Experimental: (A) Representative NIR fluorescence imaging of control mouse with no tumor and mouse with sham-operation and PCa implantation in the subrenal capsules of the kidneys. Mice were injected i.p with NIR dye, MHI-148, 48 hours before fluorescence imaging at excitation of 783 nm and emission of 840 nm. […] (B) Representative ex vivo NIR fluorescence imaging of kidneys with sham operation and PCa tumor implantations. NIR fluorescence signal was only detected in the growing PCa tumors implanted in the subrenal capsule of the right kidney. (C) Fluorescent microscopy of DAPI, NIR, and merged images of frozen sections of the human PCa tumor and the mouse kidney from the subrenal xenograft model (200× magnification) (D) Representative H&E staining of the PCa tumors implanted in the mouse kidney capsule (40× magnification; inlet: 400× magnification).
The uptakes of NIR dye MHI-148 by prostate PDX tumors implanted in mouse subrenal capsules were investigated. […] Mice were injected i.p with NIR dye, MHI-148. After 48 hours, fluorescence imaging was performed with an excitation of 783 nm and emission of 840 nm. […] NIR fluorescence signal was only detected in the growing prostate cancer tumors implanted in the subrenal capsule of the right kidney.

pancreatic PDX tumors = assay: Uptake of NIR dye by pancreatic PDX tumors implanted in mouse subrenal capsules; assay type: in vivo; details: subrenal capsule implant
Description: (A) NIR fluorescent imaging of mouse bearing human pancreatic PDX tumors in subrenal capsules (excitation: 783 nm; […] nm) (B) Ex vivo bright field and NIR fluorescent imaging of pancreatic PDX tumors in the kidney capsules and other organs harvested from mouse and (C) the NIR fluorescent intensity was quantified for the tumor and for each organ (total radiance efficiency [p/s]/[μW/cm^2]) (D) Fluorescent microscopy of DAPI, NIR, and merged images of frozen section of pancreatic PDX tumor in the kidney capsule. White dash line outlines the mouse kidney and red dash line outlines the pancreatic PDX tumor.
The uptakes of NIR dye MHI-148, by pancreatic patient-derived xenografts (PDX) tumors implanted in mouse subrenal capsules were investigated. […] White dash line outlines the mouse kidney and red dash line outlines the pancreatic PDX tumor.

MCF-7 = assay: Tumor cell growth inhibition IC50, MCF-7; assay type: cell-based; details: Breast Cancer cell line MCF-7; read-out: Half maximal inhibitory concentration (IC50) MCF-7
Description: as §1

[5] = test system: prostate cancer PC3 tumors; assay: Uptake by prostate cancer PC3 tumors in mice (NIR imaging); assay type: in vivo; details: for uptake by PC3 tumor in mice: 100 nmole i.p., imaged 48 hours thereafter
[6] = test system: CW22Rv1 prostate tumor brain metastases; assay: Survival of mice bearing CW22Rv1 prostate tumor brain metastases (Kaplan-Meier); assay type: in vivo; details: 10 mg/kg, twice a week; p<0.001 (log-rank test) vs vehicle
Description: (§2) IR-783 was used a positive control in parallel. Scale bar represents 50 μm.

intracranial U87 tumor = details: 10 mg/kg, twice a week
Experimental: (§3) (A) Uptake of DZ-1-Gem (5 μM, 10 min) by U87 and CW22Rv1 cells. IR-783 was used a positive control in parallel. Scale bar represents 50 μm. (B) Proliferation of U87 cells treated with vehicle, gemcitabine (200 nM) or DZ-1-Gem (200 nM) for 4 consecutive days.
(§4) In these experiments, cells were fixed and stained with crystal violet, and OD value at the wavelength of 595 nm was determined (n=5 for each experimental group, mean±SEM) *p<0.05, **p<0.01.

U87 cells [7] = details: 200 nM, 4 consecutive days
Experimental: as §3, §4

[8] = test system: prostate cancer PC3 cells; details: DZ-1-gemcitabine 10 mg/kg vs gemcitabine 2.5 mg/kg, twice a week i.p.
Description: (§5) Arrows indicate the onset of treatments. * p<0.05; ** p<0.01; *** p<0.001.
as §5

pancreatic MIAPaCa cells = details: DZ-1-gemcitabine 10 mg/kg vs gemcitabine 2.5 mg/kg, twice a week i.p.
Description: as §5, §5

MIAPaCa tumors = details: 10 mg/kg; subcutaneous luc-tagged MIAPaCa tumors; in vivo and ex vivo imaging
CW22Rv1 cells = details: 5 μM, 10 min
Experimental: as §3, §2

U87 cells [9] = details: 5 μM, 10 min
Experimental: as §3, §2

## CC1(C)C(/C=C/C2=C(Cl)C(=C/C=C3/N(CCCCCC(=O)O)c4ccccc4C3(C)C)/CCC2)=[N+](CCCCS(=O)(=O)[O-])c2ccccc21
cancer
  Cancer targeting: Positive

## CC1(C)C(/C=C/C2=C(SCCC(=O)Nc3ccn(C4OC(CO)C(O)C4(F)F)c(=O)n3)C(=C/C=C3/N(CCCCS(=O)(=O)O)c4ccccc4C3(C)C)/CCC2)=[N+](CCCCS(=O)(=O)[O-])c2ccccc21 (stereo not drawn)
cancer
  Cancer targeting: Negative

## CC1(C)C(/C=C/C2=C(Cl)C(=C/C=C3/N(CCCCCC(=O)O)c4ccccc4C3(C)C)/CCC2)=[N+](CCCCCC(=O)O)c2ccccc21
cancer
  Cancer targeting: Positive

## CC1(C)C(/C=C/C2=C(NCCCC(=O)O)C(=C/C=C3/N(CCCCS(=O)(=O)O)c4ccccc4C3(C)C)/CCC2)=[N+](CCCCS(=O)(=O)[O-])c2ccccc21
cancer
  Cancer targeting: Negative

## CC1(C)C(/C=C/C2=C(Cl)C(=C/C=C3/N(CCCCS(=O)(=O)O)c4ccccc4C3(C)C)/CCC2)=[N+](CCCCS(=O)(=O)[O-])c2ccccc21
cancer
  Cancer targeting: Positive

## CC1(C)C(/C=C/C2=C(Cl)C(=C/C=C3/N(CCCCCC(=O)NCCCCC(NC(=O)CN4CCN(CC(=O)O)CCN(CC(=O)O)CCN(CC(=O)O)CC4)C(=O)O)c4ccccc4C3(C)C)/CCC2)=[N+](CCCCS(=O)(=O)[O-])c2ccccc21 (stereo not drawn)
cancer
  Cancer targeting: Positive

## CC1(C)C(/C=C/C2=C(Cl)C(=C/C=C3/N(CCCCCC(=O)Nc4ccn(C5OC(CO)C(O)C5(F)F)c(=O)n4)c4ccccc4C3(C)C)/CCC2)=[N+](CCCCS(=O)(=O)[O-])c2ccccc21 (stereo not drawn)
cancer
  Cancer targeting: Positive

## CC1(C)C(/C=C/C2=C(Cl)C(=C/C=C3/N(CCCCCC(=O)Nc4ccc(CC5CN(CC(=O)O)CCN(CC(=O)O)CCN5CC(=O)O)cc4)c4ccccc4C3(C)C)/CCC2)=[N+](CCCCS(=O)(=O)[O-])c2ccccc21 (stereo not drawn)
cancer
  Cancer targeting: Positive

## CC1(C)C(/C=C/C2=C(SCCCC(=O)O)C(=C/C=C3/N(CCCCS(=O)(=O)O)c4ccccc4C3(C)C)/CCC2)=[N+](CCCCS(=O)(=O)[O-])c2ccccc21
cancer
  Cancer targeting: Negative

## CCC(=[N][Pt]([NH2])([NH2])[Cl])N(C)CCNC(=O)CCCCCN1/C(=C/C=C2\CCCC(/C=C/C3=[N+](CCCCS(=O)(=O)[O-])c4ccccc4C3(C)C)=C2Cl)C(C)(C)c2ccccc21
cancer
  Cancer targeting: Positive

## N.N.[Cl][Pt][Cl] [Cisplatin, reference compound]
ACHN
  IC50: 28700 nM
H358
  IC50: > 50000 nM
Hep G2
  IC50: > 50000 nM
C4-2B [1]
  IC50: > 50000 nM
PC3
  IC50: > 50000 nM
LNCaP [2]
  IC50: > 50000 nM

## C#CCN(C)CCCOc1ccc(Cl)cc1Cl [Clorgyline]
C4-2B [3]
  IC50: 114000 nM
LNCaP [4]
  IC50: 81000 nM
PC-3
  IC50: 120000 nM

## CC(=O)O[C@@]12CO[C@@H]1C[C@H](O)[C@@]1(C)C(=O)[C@H](O)C3=C(C)[C@@H](OC(=O)[C@H](O)[C@@H](NC(=O)OC(C)(C)C)c4ccccc4)C[C@@](O)([C@@H](OC(=O)c4ccccc4)[C@H]21)C3(C)C [Docetaxel]
C4-2; Homo sapiens
  IC50: 3200 nM
LNCaP [4]; Homo sapiens
  IC50: 10 nM
BX-PC3; Homo sapiens, BXPC-3
  IC50: 7 nM
PC-3; Homo sapiens
  IC50: 330 nM
MiaPaCa II; Homo sapiens, MIA PaCa-2
  IC50: 6 nM

## Nc1ccn([C@@H]2O[C@H](CO)[C@@H](O)C2(F)F)c(=O)n1 [Gemcitabine]
C4-2; Homo sapiens
  IC50: 85 nM
LNCaP [4]; Homo sapiens
  IC50: 250 nM
BX-PC3; Homo sapiens, BXPC-3
  IC50: 135 nM
PC-3; Homo sapiens
  IC50: 380 nM
MiaPaCa II; Homo sapiens, MIA PaCa-2
  IC50: 22 nM

## CC1(C)C(/C=C/C2=C(Cl)C(=C/C=C3\N(CCCCCC(=O)O)c4ccccc4C3(C)C)/CCC2)=[N+](CCCCCC(=O)O)c2ccccc21 [MHI-148]
Prostate PDX tumors
  NIR fluorescence signal (uptake) in prostate PDX tumor vs sham-operated kidney and control mouse: Only the prostate cancer tumor implanted in the subrenal capsule of the right kidney showed the NIR fluorescence signal
Pancreatic PDX tumors
  uptake of NIR dye in pancreatic PDX tumor vs mouse kidney (fluorescent microscopy of frozen section): Only the pancreatic tumor uptakes the NIR dye

## IR-783-N1-methylethylenediamine-cisplatin [DZ-1-cisplatin]
ACHN
  IC50: 4030 nM
MCF-7
  IC50: 13100 nM
H358
  IC50: 4950 nM
Hep G2
  IC50: > 50000 nM
C4-2B [1]
  IC50: 15900 nM
PC3
  IC50: 7570 nM
LNCaP [2]
  IC50: 21600 nM
[5]
  uptake by PC3 tumor in mice: accumulate only in the tumor cells, but not in the normal organs

## IR-783-gemcitabine [DZ-1-gemcitabine]
C4-2
  IC50: 93 nM
[6]
  survival of mice: significantly improved survival
LNCaP [4]
  IC50: 340 nM
Intracranial U87 tumor
  intracranial U87 tumor growth (bioluminescence): effectively suppressed tumor growth, resulting in no bioluminescence
U87 cells [7]
  inhibition of U87 cell proliferation: as effective as Gem
BX-PC3
  IC50: 230 nM
PC-3
  IC50: 420 nM
[8]
  prevention and inhibition of subcutaneous PC3 tumor growth (tumor volume): more effective than Gemcitabine
Pancreatic MIAPaCa cells
  prevention and inhibition of subcutaneous MIAPaCa tumor growth (tumor volume): more effective than Gemcitabine
MiaPaCa II
  IC50: 85 nM
MIAPaCa tumors
  uptake by MIAPaCa tumors vs normal organs: specifically by prostate and pancreatic tumors but not normal organs
CW22Rv1 cells
  uptake by CW22Rv1 cells: readily taken up
U87 cells [9]
  uptake by U87 cells: readily taken up
[5]
  uptake by PC3 tumor in mice: accumulate only in the tumor cells, but not in the normal organs
[5]; 10 mg/kg, subcutaneous luc-tagged PC3 tumors, in vivo and ex vivo imaging
  uptake by PC3 tumors vs normal organs: specifically by prostate and pancreatic tumors but not normal organs
